# In patent US6914045B2, “Glycopeptide antibiotics” (Wyeth Holdings Corporation, priority 2001, dated 2005):
# What was measured:
# Assay in all cases: in vitro antibacterial evaluation, MIC by broth dilution
# Type in all cases: cell-based
# Enterococcus sp. = details: broth dilution, 18 hours at 35° C.
# Procedure: (§1) Methods for in vitro Antibacterial Evaluation (Table 1)
# (§2) The minimum inhibitory concentration (MIC), the lowest concentration of the antibiotic which inhibits growth of the test organism, is determined by the broth dilution method using Muller-Hinton II […] (Baltimore Biological Laboratories) following the recommendations of the National Committee for Clinical Laboratory Standards [Methods for dilution antimicrobial susceptibility tests for bacteria that grow aerobically, approved standard M7-A2, National Committee for Clinical Laboratory Standards, Villanova, Pa.].
# (§3) An inoculum level of 5×10^5 CFU/mL, and a range of antibiotic concentrations (64-0.06 μg/mL) is used. […] The test organisms include a spectrum of Gram-positive bacteria comprised of Staphylococcus sp., Streptococcus sp. and Enterococcus sp. These organisms include recent clinical isolates that are resistant to methicillin, penicillin and/or vancomycin.
# Staphylococcus sp. = details: broth dilution, 18 hours at 35° C.; for MIC Staphylococcus aureus (ATCC 29213): strain ATCC 29213; for MIC Staphylococcus aureus (GC 1131): strain GC 1131; for MIC Staphylococcus aureus (GC 3051): strain GC 3051; for MIC Staphylococcus aureus (GC 3053): strain GC 3053; for MIC Staphylococcus aureus (GC 4541): strain GC 4541; for MIC Staphylococcus aureus (GC 4542): strain GC 4542; for MIC Staphylococcus aureus-SMITH (GC 4543): strain GC 4543; for MIC Staphylococcus aureus (GC 4544): strain GC 4544; for MIC Staphylococcus aureus (GC 4545): strain GC 4545; for MIC Staphylococcus haemolyticus (GC 4546): strain GC 4546; for MIC Coagulase Negative Staphylococcus (GC 4547): strain GC 4547; for MIC Coagulase Negative Staphylococcus (GC 4548): strain GC 4548; for MIC Coagulase Negative Staphylococcus (GC 4549): strain GC 4549; for MIC Coagulase Negative Staphylococcus (GC 4551): strain GC 4551
# Procedure: as §1, §2, §3
# Streptococcus sp. = details: broth dilution, 18 hours at 35° C.
# Procedure: as §1, §2, §3
# Escherichia coli = details: 18 hours at 35° C.
compound,measurement,setting,value
CC(c1ccccc1)C1NC(=O)CNC(=O)C(CO)NC(=O)C(C(O)C2CNC(=N)N2C2OC(CO)C(O)C(O)C2O)NC(=O)C(C(O)C2CNC(=N)N2)NC(=O)C(Cc2ccc(OC3OC(CO)C(OC4OC5COC6(CC7CCC6(C)C7(C)C)OC5C(O)C4O)C(O)C3O)cc2)NC1=O (centres unmarked) [Example 215],MIC Enterococcus avium (GC 4558),Enterococcus sp.,0.5 µg/mL
same,MIC Enterococcus faecalis (ATCC 29212),Enterococcus sp.,0.5 µg/mL
same,MIC Enterococcus faecalis (GC 2242),Enterococcus sp.,1 µg/mL
same,MIC Enterococcus faecalis (GC 2691),Enterococcus sp.,1 µg/mL
same,MIC Enterococcus faecalis (GC 3059),Enterococcus sp.,1 µg/mL
same,MIC Enterococcus faecalis (GC 4552),Enterococcus sp.,1 µg/mL
same,MIC Enterococcus faecalis (GC 4553),Enterococcus sp.,0.5 µg/mL
same,MIC Enterococcus faecalis (GC 4554),Enterococcus sp.,1 µg/mL
same,MIC Enterococcus faecalis (GC 6189),Enterococcus sp.,1 µg/mL
same,MIC Enterococcus faecium (GC 2243),Enterococcus sp.,0.5 µg/mL
same,MIC Enterococcus faecium (GC 4556),Enterococcus sp.,1 µg/mL
same,MIC Enterococcus faecium (GC 4557),Enterococcus sp.,0.5 µg/mL
same,MIC Enterococcus faecalis (ATCC 29212),"Enterococcus sp.; inoculum 5×10^5 CFU/mL, strain ATCC 29212",0.5 µg/mL
same,MIC Enterococcus faecalis (GC 2242),"Enterococcus sp.; inoculum 5×10^5 CFU/mL, strain GC 2242",1 µg/mL
same,MIC Enterococcus faecium (GC 2243),"Enterococcus sp.; inoculum 5×10^5 CFU/mL, strain GC 2243",0.5 µg/mL
same,MIC Enterococcus faecalis (GC 2691),"Enterococcus sp.; inoculum 5×10^5 CFU/mL, strain GC 2691",1 µg/mL
same,MIC Enterococcus faecalis (GC 3059),"Enterococcus sp.; inoculum 5×10^5 CFU/mL, strain GC 3059",1 µg/mL
same,MIC Enterococcus faecalis (GC 4552),"Enterococcus sp.; inoculum 5×10^5 CFU/mL, strain GC 4552",1 µg/mL
same,MIC Enterococcus faecalis (GC 4553),"Enterococcus sp.; inoculum 5×10^5 CFU/mL, strain GC 4553",0.5 µg/mL
same,MIC Enterococcus faecalis (GC 4554),"Enterococcus sp.; inoculum 5×10^5 CFU/mL, strain GC 4554",1 µg/mL
same,MIC Enterococcus faecium (GC 4556),"Enterococcus sp.; inoculum 5×10^5 CFU/mL, strain GC 4556",1 µg/mL
same,MIC Enterococcus faecium (GC 4557),"Enterococcus sp.; inoculum 5×10^5 CFU/mL, strain GC 4557",0.5 µg/mL
same,MIC Enterococcus avium (GC 4558),"Enterococcus sp.; inoculum 5×10^5 CFU/mL, strain GC 4558",0.5 µg/mL
same,MIC Enterococcus faecalis (GC 6189),"Enterococcus sp.; inoculum 5×10^5 CFU/mL, strain GC 6189",1 µg/mL
same,MIC Staphylococcus aureus (ATCC 29213),Staphylococcus sp.,0.5 µg/mL
same,MIC Staphylococcus aureus (GC 1131),Staphylococcus sp.,0.5 µg/mL
same,MIC Staphylococcus aureus (GC 3051),Staphylococcus sp.,0.5 µg/mL
same,MIC Staphylococcus aureus (GC 3053),Staphylococcus sp.,1 µg/mL
same,MIC Staphylococcus aureus (GC 4541),Staphylococcus sp.,0.5 µg/mL
same,MIC Staphylococcus aureus (GC 4542),Staphylococcus sp.,0.5 µg/mL
same,MIC Staphylococcus aureus-SMITH (GC 4543),Staphylococcus sp.,<0.12 µg/mL
same,MIC Staphylococcus aureus (GC 4544),Staphylococcus sp.,0.5 µg/mL
same,MIC Staphylococcus aureus (GC 4545),Staphylococcus sp.,1 µg/mL
same,MIC Staphylococcus haemolyticus (GC 4546),Staphylococcus sp.,0.5 µg/mL
same,MIC Coagulase Negative Staphylococcus (GC 4547),Staphylococcus sp.,0.5 µg/mL
same,MIC Coagulase Negative Staphylococcus (GC 4548),Staphylococcus sp.,0.5 µg/mL
same,MIC Coagulase Negative Staphylococcus (GC 4549),Staphylococcus sp.,<0.12 µg/mL
same,MIC Coagulase Negative Staphylococcus (GC 4551),Staphylococcus sp.,0.5 µg/mL
same,MIC Streptococcus agalactiae (GC 4564),Streptococcus sp.,<0.12 µg/mL
same,MIC Streptococcus pneumoniae (ATCC 6301),Streptococcus sp.,<0.12 µg/mL
same,MIC Streptococcus pneumoniae (GC 1894),Streptococcus sp.,<0.12 µg/mL
same,MIC Streptococcus pneumoniae (GC 4565),Streptococcus sp.,<0.12 µg/mL
same,MIC Streptococcus pyogenes (GC 4563),Streptococcus sp.,<0.12 µg/mL
same,MIC Streptococcus pneumoniae (ATCC 6301),"Streptococcus sp.; inoculum 5×10^5 CFU/mL, strain ATCC 6301",<0.12 µg/mL
same,MIC Streptococcus pneumoniae (GC 1894),"Streptococcus sp.; inoculum 5×10^5 CFU/mL, strain GC 1894",<0.12 µg/mL
same,MIC Streptococcus pyogenes (GC 4563),"Streptococcus sp.; inoculum 5×10^5 CFU/mL, strain GC 4563",<0.12 µg/mL
same,MIC Streptococcus agalactiae (GC 4564),"Streptococcus sp.; inoculum 5×10^5 CFU/mL, strain GC 4564",<0.12 µg/mL
same,MIC Streptococcus pneumoniae (GC 4565),"Streptococcus sp.; inoculum 5×10^5 CFU/mL, strain GC 4565",<0.12 µg/mL
same,MIC Escherichia coli (ATCC 25922),Escherichia coli,32 µg/mL
same,MIC Escherichia coli (GC 4559),Escherichia coli,32 µg/mL
same,MIC Escherichia coli (GC 4560),Escherichia coli,1 µg/mL
"CCC(=O)Nc1cc(CC2NC(=O)C(C(C)c3ccccc3)NC(=O)CNC(=O)C(CO)NC(=O)C(C(O)C3CNC(=N)N3C3OC(CO)C(O)C(O)C3O)NC(=O)C(C(O)C3CNC(=N)N3)NC2=O)ccc1O (stereo not drawn) [Example 14, Cyclo[glycyl-β-methylphenylalanyl-3-(propanamido)tyrosyl-3-(2-iminoimidazolidin-4-yl)seryl-3-(3-hexopyranosyl-2-iminoimidazolidin-4-yl)serylseryl]]",MIC Enterococcus faecalis (ATCC 29212),Enterococcus sp.; strain ATCC 29212,>128 µg/mL
same,MIC Enterococcus faecalis (GC 2242),Enterococcus sp.; strain GC 2242,>128 µg/mL
same,MIC Enterococcus faecium (GC 2243),Enterococcus sp.; strain GC 2243,>128 µg/mL
same,MIC Enterococcus faecalis (GC 2691),Enterococcus sp.; strain GC 2691,>128 µg/mL
same,MIC Enterococcus faecalis (GC 3059),Enterococcus sp.; strain GC 3059,>128 µg/mL
same,MIC Enterococcus faecalis (GC 4552),Enterococcus sp.; strain GC 4552,>128 µg/mL
same,MIC Enterococcus faecalis (GC 4553),Enterococcus sp.; strain GC 4553,>128 µg/mL
same,MIC Enterococcus faecalis (GC 4554),Enterococcus sp.; strain GC 4554,>128 µg/mL
same,MIC Enterococcus faecium (GC 4556),Enterococcus sp.; strain GC 4556,>128 µg/mL
same,MIC Enterococcus faecium (GC 4557),Enterococcus sp.; strain GC 4557,>128 µg/mL
same,MIC Enterococcus avium (GC 4558),Enterococcus sp.; strain GC 4558,128 µg/mL
same,MIC Enterococcus faecalis (GC 6189),Enterococcus sp.; strain GC 6189,>128 µg/mL
same,MIC Staphylococcus aureus (ATCC 29213),Staphylococcus sp.,>128 µg/mL
same,MIC Staphylococcus aureus (GC 1131),Staphylococcus sp.,>128 µg/mL
same,MIC Staphylococcus aureus (GC 3051),Staphylococcus sp.,>128 µg/mL
same,MIC Staphylococcus aureus (GC 3053),Staphylococcus sp.,>128 µg/mL
same,MIC Staphylococcus aureus (GC 4541),Staphylococcus sp.,>128 µg/mL
same,MIC Staphylococcus aureus (GC 4542),Staphylococcus sp.,>128 µg/mL
same,MIC Staphylococcus aureus-SMITH (GC 4543),Staphylococcus sp.,>128 µg/mL
same,MIC Staphylococcus aureus (GC 4544),Staphylococcus sp.,>128 µg/mL
same,MIC Staphylococcus aureus (GC 4545),Staphylococcus sp.,>128 µg/mL
same,MIC Staphylococcus haemolyticus (GC 4546),Staphylococcus sp.,>128 µg/mL
same,MIC Coagulase Negative Staphylococcus (GC 4547),Staphylococcus sp.,>128 µg/mL
same,MIC Coagulase Negative Staphylococcus (GC 4548),Staphylococcus sp.,>128 µg/mL
same,MIC Coagulase Negative Staphylococcus (GC 4549),Staphylococcus sp.,>128 µg/mL
same,MIC Coagulase Negative Staphylococcus (GC 4551),Staphylococcus sp.,>128 µg/mL
same,MIC Coagulase Negative Staphylococcus (GC 6257),Staphylococcus sp.; strain GC 6257,>128 µg/mL
same,MIC Streptococcus pneumoniae (ATCC 6301),Streptococcus sp.; strain ATCC 6301,>128 µg/mL
same,MIC Streptococcus pneumoniae (GC 1894),Streptococcus sp.; strain GC 1894,128 µg/mL
same,MIC Streptococcus pyogenes (GC 4563),Streptococcus sp.; strain GC 4563,>128 µg/mL
same,MIC Streptococcus agalactiae (GC 4564),Streptococcus sp.; strain GC 4564,128 µg/mL
same,MIC Streptococcus pneumoniae (GC 4565),Streptococcus sp.; strain GC 4565,64 µg/mL
same,MIC Escherichia coli (ATCC 25922),"Escherichia coli; strain ATCC 25922, broth dilution",>128 µg/mL
same,MIC Escherichia coli (GC 4559),"Escherichia coli; strain GC 4559, broth dilution",>128 µg/mL
same,MIC Escherichia coli (GC 4560),"Escherichia coli; strain GC 4560, broth dilution",128 µg/mL
